Where two headings read alike, the source gives them in different places.

Common to all, as to format: cell-based
Experiment [1] relates to HIV-1Lai. As to the kind of experiment: HIV-1Lai p24 reduction assay in MT-2 cells.
Experiment [2] deals with MCMV. As to the kind of experiment: MCMV plaque reduction assay in HFF cells. Particulars: read-out: MCMV, 50% effective concentration, EC50.
In experiment [3] the test system is HCMV AD169. In words: HCMV AD169 plaque reduction assay in HFF cells. (In general: Plaque reduction counts the foci of infection that form in a cell layer.)
Experiment [4] deals with HSV-1. As to the kind of experiment: HSV-1 DNA reduction assay in MRC-5 cells.
The test system of experiment [5] is HSV-1. As to the kind of experiment: HSV-1 plaque reduction assay.
The subject of experiment [6] is Cowpox Brighton. In words: organism not typed. Particulars: read-out: Cowpox, 50% effective concentration, EC50.
Experiment [7] concerns HSV-2. As to the kind of experiment: HSV-2 plaque reduction assay.
Experiment [8] concerns Vaccinia WR. In words: microbe, parasite or virus in culture. The settings on record: read-out: Vaccinia, 50% effective concentration, EC50.
[9] abbreviates: read-out: HCMV, 50% effective concentration, EC50.
The mark [10] stands for this setting: read-out: HSV-1, 50% effective concentration, EC50.

As to `Nc1ncnc2c1ncn2CCOCP(=O)(O)O` [ADV, phosphonomethoxyethyadenine, reference compound], in experiment [1] (Human immunodeficiency virus 1, MT2, read-out: HIV-1, 50% effective concentration, EC50), the EC50 worked out at 1300 nM.
On to `Nc1ccn(C[C@@H](CO)OCP(=O)(O)O)c(=O)n1` [HPMPC, (S)-9-[3-hydroxy-2-(phosphonomethoxy)-propyl]cytosine, reference compound], for which the EC50 in experiment [2] turned out to be 40 nM; in experiment [3] (Human betaherpesvirus 5, read-out: HCMV, 50% effective concentration, EC50), 1200 nM; in experiment [4] (Human alphaherpesvirus 1, MRC5, read-out: HSV-1, 50% effective concentration, EC50) it was 3300 nM; in experiment [5] (Human alphaherpesvirus 1, read-out: HSV-1, 50% effective concentration, EC50), 15000 nM; in experiment [6] (HFF), 42000 nM; in experiment [7] (Human alphaherpesvirus 2, read-out: HSV-2, 50% effective concentration, EC50), 10500 nM. Besides, the EC50 in experiment [8] (Orthopoxvirus vaccinia, HFF) was 31000 nM.
`CCCCCCCCCCCCCCCCCCOCCOP(=O)(O)OP(=O)(O)CO[C@H](CO)Cn1ccc(N)nc1=O` [ODE-phospho-HPMPC]: the EC50 in experiment [2] was determined as 30 nM; in experiment [3] (setting [9]), 4 nM; in experiment [4] (setting [10]), 0.02 nM; in experiment [6], 540 nM; in experiment [8] it was 320 nM.
Consider “(1-(4-aminooxopyrimidin-1(2H)-yl)-3-hydroxypropan-2-yloxy)methylphosphonic(3-hexadecyloxy)propylphosphoric) anhydride [HDP-phospho-HPMPC]”, for which the EC50 in experiment [2] was 350 nM; in experiment [3] (setting [9]), 100 nM; in experiment [4] (setting [10]) it was 60 nM; in experiment [5] (setting [10]) it was 130 nM; in experiment [6], 3900 nM; in experiment [7] (read-out: HSV-2, 50% effective concentration, EC50), 300 nM. The EC50 in experiment [8] is 2800 nM.
For the compound “(2-(6amino-9H-purin-9-yl)ethoxy)methylphosphonic(3-hexadecyloxy)propylphosphonic)anhydride [HDP-phospho-ADV]”, the EC50 in experiment [1] (read-out: HIV-1, 50% effective concentration, EC50) came to 9 nM.

Values taken from patent US20090156545A1, “Substituted Phosphate Esters of Nucleoside Phosphonates” (priority 2005, published 2009).
